Measured values as given in patent publication EP4818176A1, “TETRACYCLIC DERIVATIVE INHIBITOR, AND PREPARATION METHOD AND USE THEREFOR” (Shanghai Hansoh Biomedical Co., Ltd., priority 2023, dated 2025).
Like-named read-outs stand apart in the source and are kept apart here.

Columns and labels:
[1] = test system: MTAP Knockout HCT116 cells; experiment: Cell proliferation inhibition (CellTiter-Glo), HCT116 MTAP knockout cells; assay type: cell-based; conditions: for Selectivity: HCT116 IC50 versus MTAP Knockout HCT116 IC50
Excerpt: (§1) Test Example 2: Determination of the inhibitory effect of the compounds of the present invention on the proliferation activity of HCT116 and MTAP Knockout HCT116 cells.
(§2) 1 Experimental objective: The objective of this test example is to determine the inhibitory effect of the compound on the proliferation activity of HCT116 wild-type and HCT116 MTAP knockout cells. 2 Experimental instruments: Centrifuge (Eppendorf 5810R); microplate reader (BioTek Synergy H1 or PerkinElmer Envision); pipette (Eppendorf or Rainin). 3 Experimental reagents: HCT116 and MTAP Knockout HCT116 cells were purchased from Nanjing Cobioer; Cell Titer-Glo was purchased from Promega (Cat. No. G7573); McCoy'5A was purchased from Gibco (Cat. No. 12330031); FBS was purchased from Gibco (Cat. No. 10091148); PBS was purchased from Gibco (Cat. No. 10010023); trypsin was purchased from Gibco (Cat. No. 25200056); cell culture plates were purchased from Corning (Cat. No. 3610). 4 Experimental method: HCT116 and MTAP Knockout HCT116 cells were cultured in McCoy'5A medium containing 10% FBS until an appropriate cell density was reached. The cells were then collected and adjusted to a suitable concentration using complete medium. The cell suspension was seeded into a 96-well plate at 90 µL per well and allowed to adhere overnight in a 37°C, 5% CO2 incubator. Compound solutions of various concentrations were prepared using DMSO and culture medium, with a vehicle control set. The compound solutions were added to the 96-well plate at 10 µL per well, and the plate was incubated in a 37°C, 5% CO2 incubator for an additional 72-240 hours. After incubation, CellTiter-Glo solution was added, and the mixture was mixed uniformly by shaking, followed by incubation in the dark for 10 to 30 minutes. Luminescence was measured using a Synergy H1 or Envision microplate reader. 5 Experimental data processing method: The inhibition rate was calculated using the luminescence signal values, and the concentrations along with the inhibition rates were subjected to non-linear regression curve fitting using Graphpad Prism software to obtain the IC50 values.

HCT116 wild-type cells = experiment: Cell proliferation inhibition (CellTiter-Glo), HCT116 wild-type cells; assay type: cell-based
Excerpt: as §1, §2

[2] = target: T1, PRMT5/MEP50-MTA protein complex (Homo sapiens, UniProt O14744); experiment: Thermal shift assay: thermal stability (melting temperature) of PRMT5/MEP50-MTA protein complex; assay type: binding; conditions: final compound concentration 8 µM; 2 µM PRMT5/MEP50, 2 µM MTA; Tm minus Tm of DMSO vehicle control
T1 construct: purchased Viva Biotech
T1 sequence (O14744 whole entry): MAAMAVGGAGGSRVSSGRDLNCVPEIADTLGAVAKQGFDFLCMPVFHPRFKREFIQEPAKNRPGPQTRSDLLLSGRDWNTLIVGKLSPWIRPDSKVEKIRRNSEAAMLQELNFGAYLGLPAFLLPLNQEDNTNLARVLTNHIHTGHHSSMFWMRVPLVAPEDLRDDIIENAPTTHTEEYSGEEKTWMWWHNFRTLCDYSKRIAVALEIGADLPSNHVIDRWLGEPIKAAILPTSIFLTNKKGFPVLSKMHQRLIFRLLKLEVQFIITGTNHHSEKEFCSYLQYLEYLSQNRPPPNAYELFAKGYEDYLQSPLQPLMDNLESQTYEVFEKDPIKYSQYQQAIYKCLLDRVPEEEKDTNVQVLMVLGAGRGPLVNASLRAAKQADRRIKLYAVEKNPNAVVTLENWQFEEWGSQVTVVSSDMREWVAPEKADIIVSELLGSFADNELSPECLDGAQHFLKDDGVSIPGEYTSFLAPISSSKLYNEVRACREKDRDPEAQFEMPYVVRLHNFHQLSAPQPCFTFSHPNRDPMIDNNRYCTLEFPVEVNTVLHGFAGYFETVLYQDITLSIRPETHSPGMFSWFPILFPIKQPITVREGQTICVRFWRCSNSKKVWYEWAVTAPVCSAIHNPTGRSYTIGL
T1 sequence (Q9BQA1 whole entry partner): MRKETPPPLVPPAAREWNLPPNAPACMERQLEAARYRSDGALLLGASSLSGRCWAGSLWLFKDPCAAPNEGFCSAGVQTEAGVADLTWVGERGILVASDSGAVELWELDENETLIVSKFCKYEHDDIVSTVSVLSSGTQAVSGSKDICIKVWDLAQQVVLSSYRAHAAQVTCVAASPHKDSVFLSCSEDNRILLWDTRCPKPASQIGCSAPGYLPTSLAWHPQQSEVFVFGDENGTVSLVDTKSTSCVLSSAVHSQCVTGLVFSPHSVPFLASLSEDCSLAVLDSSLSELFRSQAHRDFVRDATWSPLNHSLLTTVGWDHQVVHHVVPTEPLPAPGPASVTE
Excerpt: Test Example 1: Determination of the ability of the compounds of the present invention to improve the thermal stability (melting temperature) of the PRMT5/MEP50-MTA protein complex.
1 Experimental objective: The objective of this test example is to determine the ability of the compound to improve the thermal stability of the PRMT5/MEP50-MTA protein complex, resulting in an increase in the protein melting temperature. 2 Experimental instruments: Quantitative PCR instrument (Quantstudio6 Flex) was purchased from Life Technologies; pipettes were purchased from Eppendorf or Rainin. 3 Experimental reagents and consumables: PRMT5/MEP50 protein was prepared by Viva Biotech; HEPES was purchased from Thermo Fisher Scientific (Cat. No. 15630080); DTT was purchased from Sigma (Cat. No. 43816-10ml); sodium chloride was purchased from Invitrogen (Cat. No. AM9760G); Protein Thermal Shift™ Dye Kit was purchased from Thermo Fisher Scientific (Cat. No. 4461146); methylthioadenosine (MTA) was purchased from Sigma (Cat. No. D5011). 4 Experimental method: In this experiment, the thermal shift method was used to measure the change in the melting temperature (Tm) of the PRMT5/MEP50-MTA protein complex before and after compound binding, thereby characterising the ability of the compound to improve the thermal stability of the PRMT5/MEP50-MTA protein complex. A solution containing 50 mM HEPES, 10 mM DTT, 2 µM MTA, SYPRO Orange and 250 mM NaCl was prepared as the experimental buffer. Human PRMT5/MEP50 protein was added to a final concentration of 2 µM, and the mixture was incubated at room temperature for 30 minutes. The above reaction mixture was aliquoted into 8-strip PCR tubes at 19.5 µL per tube. Then 0.5 µL of test compound or DMSO was added to each tube, providing a total reaction volume of 20 µL and a final compound concentration of 8 µM. 2.5% DMSO was set as the vehicle control. After incubation at room temperature for 10 minutes, the PCR tubes were placed in a PCR instrument, and the melt curve function was selected to measure the melting temperature of the PRMT5/MEP50-MTA protein complex in different treatment groups (heated from 25°C to 95°C, 0.03°C/s). 5 Experimental data processing method: The experimental data files from the PCR instrument were imported into the thermal shift software to obtain the melting temperature (Tm) for each treatment group.

[3] = Pharmacokinetics in rats (plasma) after oral administration; assay type: in vivo; conditions: rat, po, SD rats, p.o. 5 mg/kg; for Cmax: read-out: Cmax; for MRT inf: read-out: MRT0-∞; for Tmax: read-out: tmax
Method: Test Example 4: Determination of the pharmacokinetics of the compounds of the present invention in rats (plasma) after oral administration.
1 Study objective: SD rats were used as test animals to study the pharmacokinetic behaviour of the following example compounds in rats (plasma) after oral administration at a dose of 5 mg/kg. 2 Test scheme • 2.1 Test drugs: Vehicle formula: 0.5% CMC-Na (1% Tween 80); the examples of the present invention, made in house. • 2.2 Test animals: 3 SD rats per group, male, purchased from Shanghai Bikai Keyi Biotechnology Co., Ltd., with animal license number (SCXK (Shanghai) 2018-0006, No.20180006037467). • 2.3 Administration: 3 SD rats per group, male, were fasted overnight and then respectively administered PO at a dose of 5 mg/kg and a volume of 10 mL/kg. • 2.4 Sample collection: 0.2 mL of blood was collected from the jugular vein of rats before administration and at 0, 0.25, 0.5, 1, 2, 4, 6, 8 and 24 h after administration, and placed in EDTA-K2test tubes, and the test tubes were centrifuged at 6,000 rpm at 4°C for 6 min to separate the plasma, which was stored at -80°C. The animals were fed 4 h after administration. • 2.5 Sample treatment • 1) 160 uL of acetonitrile was added to 40 uL of plasma sample for precipitation, and after mixing, the mixture was centrifuged at 3,500 × g for 5-20 minutes. • 2) 100 uL of the treated supernatant solution was taken for LC/MS/MS analysis to determine the concentration of the test compounds. • 2.6 Liquid phase analysis • Liquid phase conditions: Shimadzu LC-20AD pump;mass spectrometry conditions: AB Sciex API 4000 mass spectrometer • Chromatographic column: Phenomenex Gemiu 5 um C18 50 × 4.6 mm • Mobile phase: solution A: 0.1% formic acid in water, solution B: methanol • Flow rate: 1.0 mL/min, elution time: 0-4.0 min, with eluents as follows:
Experimental results and analysis: The main pharmacokinetic parameters were calculated using WinNonlin 8.2.

[4] = Homo sapiens, HCT-116, read-out: MTAP Knockout HCT116 IC50
[5] = Homo sapiens, HCT-116, read-out: HCT116 IC50

With `Cn1ncc2c(N)nc3cc4c(cc3c21)C(=O)N(Cc1ccc(C(F)(F)F)cn1)CCCOC4` [Example 190, 4-Amino-1-methyl-12-((5-(trifluoromethyl)pyridin-2-yl)methyl)-1,7,9,10,11,12-hexahydro-13H-[1,5]oxazolo[7,8-g]pyrazolo[4,3-c]quinolin-13-one] the Selectivity [1] was 123, the IC50 [1, 4] was 6.2 nM and the IC50 (HCT116 wild-type cells; [5]) was 763 nM. The ΔTm at 8 µM [2] was 12.2 °C.

“(R, Z)-4-amino-12-(2-(trifluoromethyl)-5,8-dihydro-6H-pyrano[3,4-b]pyridin-5-yl)-9,10,11,12-tetrahydro-13H-aza[4,3-g]imidazo[1,5-a]quinoxalin-13-one [Example 158-P1]” showed a Selectivity [1] of 81, an IC50 ([1]; MTAP Knockout HCT116 cells, proliferation inhibition, Cell Titer-Glo, read-out: MTAP Knockout HCT116 IC50) of 8.7 nM and an IC50 (HCT116 wild-type cells; HCT116 wild-type cells, proliferation inhibition, Cell Titer-Glo, read-out: HCT116 IC50) of 708 nM. The “ΔTm (°C)” value [2] was 12.03 °C.

For `CC1CCN(Cc2ccc(C(F)(F)F)cn2)C(=O)c2cc3c(cc2CO1)nc(N)c1cncn13` (stereo not shown) [Example 177, 4-Amino-9-methyl-12-((5-(trifluoromethyl)pyridin-2-yl)methyl)-9,10,11,12-tetrahydroimidazo[1,5-a][1,5]oxazolo[8,7-g]quinoxalin-13(7H)-one], the Selectivity [1] was 84, the IC50 [1, 4] was 18 nM and the IC50 (HCT116 wild-type cells; [5]) was 1510 nM. The ΔTm at 8 µM [2] was 11.2 °C.

Work on `CN1CCCN(Cc2ccc(C(F)(F)F)cn2)C(=O)c2cc3c(cc2C1)nc(N)c1cnn(C)c13` [Example 502, 4-Amino-1,8-dimethyl-12-((5-(trifluoromethyl)pyridin-2-yl)methyl)-7,8,9,10,11,12-hexahydro-[1,5]diazonino[7,8-g]pyrazolo[4,3-c]quinolin-13(1H)-one] yielded a ΔTm at 8 µM [2] of 10.6 °C.

`Nc1nc2cc3c(cc2n2cncc12)C(=O)N([C@@H]1COCc2nc(C(F)(F)F)ccc21)CC/C=C\3` (single isomer, unassigned) [Example 311-P1] gave an AUC(0-inf) ([3]; in vivo) of 1780 ng·h/mL, a half-life ([3]; in vivo) of 1.8 h and a Cmax ([3]; in vivo) of 330 ng/mL. For the same molecule, the MRT inf ([3]; in vivo) was 3.7 h, the Tmax ([3]; in vivo) was 2.3 h and the ΔTm at 8 µM [2] was 10.9 °C.

With `Nc1nc2cc3c(cc2n2cncc12)C(=O)N(C1COCc2nc(C(F)(F)F)ccc21)CCC/C=C\3` (stereo not shown) [Example 158, (Z)-4-Amino-12-(2-(trifluoromethyl)-5,8-dihydro-6H-pyrano[3,4-b]pyridin-5-yl)-9,10,11,12-tetrahydro-13H-azonino[4,3-g]imidazo[1,5-a]quinoxalin-13-one] the AUC(0-inf) ([3]; male) was 712 ng·h/mL, the half-life ([3]; male) was 1.3 h and the Cmax ([3]; male) was 287 ng/mL. For the same molecule, the MRT inf ([3]; male) was 2 h, the Tmax ([3]; male) was 0.5 h and the ΔTm at 8 µM [2] was 11.3 °C.

With `C[C@@H]1CCN([C@@H]2COCc3nc(C(F)(F)F)ccc32)C(=O)c2cc3c(cc2CO1)nc(N)c1cncn13` [Example 15-P1, (R)-4-amino-9-methyl-12-((S)-2-(trifluoromethyl)-5,8-dihydro-6H-pyrano[3,4-b]pyridin-5-yl)-9,10,11,12-tetrahydroimidazo[1,5-a][1,5]oxazolo[8,7-g]quinoxalin-13(7H)-one and (S)-4-amino-9-methyl-12-((R)-2-(trifluoromethyl)-5,8-dihydro-6H-pyrano[3,4-b]pyridin-5-yl)-9,10,11,12-tetrahydroimidazo[1,5-a][1,5]oxazolo[8,7-g]quinoxalin-13(7H)-one] the ΔTm at 8 µM [2] was 10.1 °C.

For `Nc1nc2cc3c(cc2n2cncc12)C(=O)N(C1COCc2nc(C(F)(F)F)ccc21)CCCC/C=C\3` (single isomer, unassigned) [Example 62-P1], the AUC(0-inf) ([3]; male) was 800 ng·h/mL, the half-life ([3]; male) was 2.2 h and the Cmax ([3]; male) was 201 ng/mL. It also gave an MRT inf ([3]; male) of 3.8 h, a Tmax ([3]; male) of 1 h and a ΔTm at 8 µM [2] of 10.8 °C.

`Cc1nc(CN2CC/C=C\c3cc4nc(N)c5cncn5c4cc3C2=O)ccc1C(F)(F)F` [Example 688, (Z)-4-Amino-11-((6-methyl-5-(trifluoromethyl)pyridin-2-yl)methyl)-10,11-dihydroazo[4,3-g]imidazo[1,5-a]quinoxalin-12(9H)-one] showed a ΔTm at 8 µM [2] of 11.6 °C.

`CC(c1ccc(C(F)(F)F)nc1)N1CCC/C=C\c2cc3nc(N)c4cncn4c3cc2C1=O` (stereo not shown) [Example 415, (Z)-4-Amino-12-(1-(6-(trifluoromethyl)pyridin-3-yl)ethyl)-9,10,11,12-tetrahydro-13H-azo[4,3-g]imidazo[1,5-a]quinoxalin-13-one] gave a ΔTm at 8 µM [2] of 10.3 °C.

`Nc1nc2cc3c(cc2n2cncc12)C(=O)N(C1COCc2nc(C(F)(F)F)ccc21)CCCCC3` (stereo not shown) [Example 159, 4-Amino-12-(2-(trifluoromethyl)-5,8-dihydro-6H-pyrano[3,4-b]pyridin-5-yl)-7,8,9,10,11,12-hexahydro-13H-azonino[4,3-g]imidazo[1,5-a]quinoxalin-13-one] showed a ΔTm at 8 µM [2] of 10.5 °C.

Molecule `Nc1nc2cc3c(cc2n2cncc12)C(=O)N(C1COCc2cc(C(F)(F)F)ccc21)CCC/C=C\3` (stereo not shown) [Example 167, (Z)-4-Amino-12-(7-trifluoromethylisochroman-4-yl)-9,10,11,12-tetrahydro-13H-azonino[4,3-g]imidazo[1,5-a]quinoxalin-13-one] has a ΔTm at 8 µM [2] of 12.3 °C.

Molecule `C[C@@H]1CCCN(Cc2ccc(C(F)(F)F)cn2)C(=O)c2cc3c(cc2C1)nc(N)c1cncn13` [Example 514-P1, (R)-4-amino-8-methyl-12-((5-(trifluoromethyl)pyridin-2-yl)methyl)-7,8,9,10,11,12-hexahydro-13H-azo[4,3-g]imidazo[1,5-a]quinoxalin-13-one] has a ΔTm at 8 µM [2] of 11.3 °C.

Molecule `Nc1nc2cc3c(cc2n2cncc12)C(=O)N(Cc1ccc(C(F)(F)F)nn1)CCC/C=C\3` [Example 391, (Z)-4-Amino-12-(6-(trifluoromethyl)pyridazin-3-yl)methyl-9,10,11,12-tetrahydro-13H-azonino[4,3-g]imidazo[1,5-a]quinoxalin-13-one] has a ΔTm at 8 µM [2] of 10.9 °C.

`Nc1nc2cc3c(cc2n2cncc12)C(=O)N(C1COCc2nc(C(F)(F)F)ccc21)CCCCOC3` (stereo not shown) [Example 48, 4-Amino-13-(2-(trifluoromethyl)-5,8-dihydro-6H-pyrano[3,4-b]pyridin-5-yl)-10,11,12,13-tetrahydro-7H-imidazo [1,5-a] [1,6] oxazino [3,4-g] quinoxalin-14(9H)-one] showed a ΔTm at 8 µM [2] of 10.9 °C.

Molecule `CC(c1ccc(C(F)(F)F)cn1)N1CCC/C=C\c2cc3nc(N)c4cncn4c3cc2C1=O` (racemic) [Example 352, (Z)-4-Amino-12-(1-(5-(trifluoromethyl)pyridin-2-yl)ethyl)-9,10,11,12-tetrahydro-13H-azo[4,3-g]imidazo[1,5-a]quinoxalin-13-one] has a ΔTm at 8 µM [2] of 11 °C.
